{
  "source": "patent US11865103B2",
  "about": "“Methods of treating disorders associated with glycosylation defective proteins” (CASE WESTERN RESERVE UNIVERSITY, priority 2016, dated 2024)",
  "key": {"[1]": {"tested_on": "hCLRN1^N48K-YFP; clrn1^KO/KO larvae", "test": "Startle response and swimming/balance behavior of ART treated hCLRN1^N48K-YFP; clrn1^KO/KO larvae", "assay_type": "in vivo, zebrafish", "protocol": "(§1) The startle response and swimming behavior of the clrn1^+/+ larvae, clrn1^KO/KO larvae, hCLRN1-YFP; clrn1^KO/KO larvae and hCLRN1^N48K-YFP; clrn1^KO/KO larvae were recorded at 6.5dpf, 10.5dpf, 16.5dpf and 27dpf as described earlier (Table-1). The extracellular microphonics potentials were recorded at 6dpf to confirm the hair cell function in these humanized zebrafish models for hCLRN1 (hCLRN1-YFP; clrn1^KO/KO larvae larvae) and USH3-CLRN1^N48Kmutant (hCLRN1^N48K-YFP; clrn1^KO/KO larvae) as described earlier (FIG. 5).\nAt 6.5 dpf, clrn1^+/+ larvae often tend to swim towards the middle or closer to surface of the water (E3 medium) in the Petri dish, and escape swiftly from the field of view when startled (by tapping the Petri dish with a metal probe). At 6.5 dpf, hCLRN1^N48K-YFP; clrn1^KO/KO larvae (n=40) were hard to distinguish from clrn1^+/+ larvae in a Petri dish when viewed from the top. […] To monitor hair cell function in the hCLRN1^N48K-YFP; clrn1^KO/KO zebrafish, larvae from several clutch were observed longitudinally from 6.5 to 27 dpf for survival, swimming behavior and startle response (Table 1). […] However, 5% of the hCLRN1^N48K-YFP; clrn1^KO/KO zebrafish do survive long enough to be able to breed like its clrn1^+/+ counterpart. […] In this model, hair cells expressing hCLRN1^N48K retained hair bundle structure and function for a longer duration than clrn1^KO/KO hair cells, consistent with previous report ‘USH3-CLRN1Y176X individuals develop severe hearing loss earlier in life compared with CLRN1^N48K individuals’. This new model for inner ear disorder associated with hCLRN1^N48K mutation will be useful to identify therapeutic agents to prevent progressive loss of hair cell function in USH3-CLRN1^N48K mutant individuals.\n(§2) To verify the degree of overall rescue in swimming behavior (hair cell function) and prolongation of life span by ART treatment in the hCLRN1^N48K-YFP; clrn1^KO/KO zebrafish larvae, survival rate, swimming behavior and startle response were observed longitudinally from 6.5 to 27 dpf (Table 1). For this rescue experiment, we followed two regimens of ART treatment. Regimen I, 35 larvae from hCLRN1^N48K-YFP; clrn1^KO/KO genotype were treated with 0.4 uM ART from 3 to 7 dpf (5 days of treatment during inner ear development and hair cell maturation). Regimen II, 20 larvae from hCLRN1^N48K-YFP; clrn1^KO/KO genotype were treated with 0.4 uM ART from 3 to 12 dpf (10 days of treatment overlapping development and post-development of inner ear anatomy and hair cell maturation). At 6.5 dpf, the swimming behavior and startle response of hCLRN1^N48K-YFP; clrn1^KO/KO larvae from ART treatment regimen I and II, were indistinguishable from that of clrn1^+/+ and hCLRN1-YFP; clrn1^KO/KO larvae. About 75% (Regimen I+II: 41 larvae) of ART treated hCLRN1^N48K-YFP; clrn1^KO/KO larvae had clrn1^+/+ equivalent startle response. In regimen I and II, the survival rate and swimming behavior of hCLRN1^N48K-YFP; clrn1^KO/KO larvae beyond 25 dpf shown significant improvement from 5% in untreated hCLRN1^N48K-YFP; clrn1^KO/KO larvae to 40% (n=14) and 45% (n=[…]), respectively. […] Overall, result confirms that ART is not only able to correct the trafficking defect of hCLRN1^N48K protein, but also able to help in normal hair cell functioning of hair cells from hCLRN1^N48K-YFP; clrn1^KO/KO zebrafish and delay onset progressive loss of hair cell function."}, "[2]": {"tested_on": "hCLRN1^N48K-YFP; clrn1^KO/KO larvae", "test": "Survival rate of hCLRN1^N48K-YFP; clrn1^KO/KO zebrafish larvae under ART treatment, 6.5 to 27 dpf", "assay_type": "in vivo", "conditions": "for Survival rate and swimming behavior beyond 25 dpf: untreated 5%", "protocol": "as §1, §2"}, "[3]": {"conditions": "Regimen I: 0.4 μM ART from 3 to 7 dpf"}, "[4]": {"conditions": "Regimen I: 0.4 μM ART from 3 to 7 dpf, 6.5 dpf"}, "[5]": {"conditions": "Regimen I: 0.4 μM ART from 3 to 7 dpf, 10.5 dpf"}, "[6]": {"conditions": "Regimen I: 0.4 μM ART from 3 to 7 dpf, 15 dpf"}, "[7]": {"conditions": "Regimen I: 0.4 μM ART from 3 to 7 dpf, 16.5 dpf"}, "[8]": {"conditions": "Regimen I: 0.4 μM ART from 3 to 7 dpf, 27 dpf"}, "[9]": {"conditions": "Regimen II: 0.4 μM ART from 3 to 12 dpf, 6.5 dpf"}, "[10]": {"conditions": "Regimen II: 0.4 μM ART from 3 to 12 dpf, 10.5 dpf"}, "[11]": {"conditions": "Regimen II: 0.4 μM ART from 3 to 12 dpf, 15 dpf"}, "[12]": {"conditions": "Regimen II: 0.4 μM ART from 3 to 12 dpf, 16.5 dpf"}, "[13]": {"conditions": "Regimen II: 0.4 μM ART from 3 to 12 dpf, 27 dpf"}},
  "data": [
    {"smiles": "C[C@@H]1CC[C@H]2[C@@H](C)C(=O)O[C@@H]3O[C@@]4(C)CC[C@@H]1[C@]32OO4", "note": "[ART, Artemisinin]", "values": [
      {"measurement": "Swimming behavior and startle response compared with clrn1^+/+ and hCLRN1-YFP; clrn1^KO/KO larvae", "setting": "[1]; ART treatment regimen I and II, 6.5 dpf", "value": "indistinguishable"},
      {"measurement": "Larvae with clrn1^+/+ equivalent startle response", "setting": "[1]; Regimen I+II, 0.4 uM ART, 6.5 dpf", "value": "About 75%"},
      {"measurement": "% of abnormal swimming-balance (6.5 dpf)", "setting": "[1]; [3]", "value": 25.71, "unit": "%"},
      {"measurement": "% of normal swimming-balance (>25 dpf)", "setting": "[1]; [3]", "value": 40, "unit": "%"},
      {"measurement": "% showing startle response at 6.5 dpf", "setting": "[1]; [3]", "value": 100, "unit": "%"},
      {"measurement": "% of normal swimming-balance (>25 dpf)", "setting": "[1]; Regimen II: 0.4 μM ART from 3 to 12 dpf", "value": 45, "unit": "%"},
      {"measurement": "Survival rate", "setting": "[2]; [4]", "value": "(100%)"},
      {"measurement": "Survival rate, number of surviving larvae", "setting": "[2]; [4]", "value": 35},
      {"measurement": "Survival rate", "setting": "[2]; [5]", "value": "(85.71%)"},
      {"measurement": "Survival rate, number of surviving larvae", "setting": "[2]; [5]", "value": 30},
      {"measurement": "Survival rate", "setting": "[2]; [6]", "value": "(68.57%)"},
      {"measurement": "Survival rate, number of surviving larvae", "setting": "[2]; [6]", "value": 24},
      {"measurement": "Survival rate", "setting": "[2]; [7]", "value": "(54.29%)"},
      {"measurement": "Survival rate, number of surviving larvae", "setting": "[2]; [7]", "value": 19},
      {"measurement": "Survival rate", "setting": "[2]; [8]", "value": "(40%)"},
      {"measurement": "Survival rate, number of surviving larvae", "setting": "[2]; [8]", "value": 14},
      {"measurement": "Survival rate and swimming behavior beyond 25 dpf", "setting": "[2]; Regimen I: 0.4 uM ART from 3 to 7 dpf", "value": 40, "unit": "%"},
      {"measurement": "Survival rate", "setting": "[2]; [9]", "value": "(100%)"},
      {"measurement": "Survival rate, number of surviving larvae", "setting": "[2]; [9]", "value": 20},
      {"measurement": "Survival rate", "setting": "[2]; [10]", "value": "(90%)"},
      {"measurement": "Survival rate, number of surviving larvae", "setting": "[2]; [10]", "value": 18},
      {"measurement": "Survival rate", "setting": "[2]; [11]", "value": "(65%)"},
      {"measurement": "Survival rate, number of surviving larvae", "setting": "[2]; [11]", "value": 13},
      {"measurement": "Survival rate", "setting": "[2]; [12]", "value": "(65%)"},
      {"measurement": "Survival rate, number of surviving larvae", "setting": "[2]; [12]", "value": 13},
      {"measurement": "Survival rate", "setting": "[2]; [13]", "value": "(45%)"},
      {"measurement": "Survival rate, number of surviving larvae", "setting": "[2]; [13]", "value": 9},
      {"measurement": "Survival rate and swimming behavior beyond 25 dpf", "setting": "[2]; Regimen II: 0.4 uM ART from 3 to 12 dpf", "value": 45, "unit": "%"}
    ]}
  ]
}
